Calls of active or inactive are those of the source. The calls are words filed in the database; no cut-off is given here.
Tests used:
Type in all cases: functional
Fusarium verticillioides [1] = assay: Antifungal activity against Fusarium moniliforme at 25 ug/ml after 48 hrs by agar well diffusion method
Aspergillus niger [2] = assay: Antifungal activity against Aspergillus niger at 50 ug/ml after 48 hrs by agar well diffusion method
Klebsiella pneumoniae [3] = assay: Antibacterial activity against Klebsiella pneumoniae at 25 ug/ml after 24 hrs by agar well diffusion method; details: for zone of inhibition at 25 µg/mL: read-out: DIZ
Staphylococcus aureus [4] = assay: Antibacterial activity against methicillin resistant Staphylococcus aureus MRSA090 at 50 ug/ml after 24 hrs by agar well diffusion method
Bacillus subtilis [5] = assay: Antibacterial activity against Bacillus subtilis at 75 ug/ml after 24 hrs by agar well diffusion method
Klebsiella pneumoniae [6] = assay: Antibacterial activity against Klebsiella pneumoniae at 50 ug/ml after 24 hrs by agar well diffusion method; details: for zone of inhibition at 50 µg/mL: read-out: DIZ
Staphylococcus aureus [7] = assay: Antibacterial activity against Staphylococcus aureus at 25 ug/ml after 24 hrs by agar well diffusion method
Bacillus subtilis [8] = assay: Antibacterial activity against Bacillus subtilis at 100 ug/ml after 24 hrs by agar well diffusion method
Staphylococcus aureus [9] = assay: Antibacterial activity against methicillin resistant Staphylococcus aureus MRSA090 at 25 ug/ml after 24 hrs by agar well diffusion method
Fusarium oxysporum [10] = assay: Antifungal activity against Fusarium oxysporum at 50 ug/ml after 48 hrs by agar well diffusion method; details: for zone of inhibition at 50 µg/mL: read-out: DIZ
Fusarium oxysporum [11] = assay: Antifungal activity against Fusarium oxysporum at 75 ug/ml after 48 hrs by agar well diffusion method; details: read-out: DIZ
Staphylococcus aureus [12] = assay: Antibacterial activity against Staphylococcus aureus at 50 ug/ml after 24 hrs by agar well diffusion method
Staphylococcus aureus [13] = assay: Antibacterial activity against Staphylococcus aureus at 100 ug/ml after 24 hrs by agar well diffusion method
Klebsiella pneumoniae [14] = assay: Antibacterial activity against Klebsiella pneumoniae at 100 ug/ml after 24 hrs by agar well diffusion method; details: read-out: DIZ
Fusarium verticillioides [15] = assay: Antifungal activity against Fusarium moniliforme at 75 ug/ml after 48 hrs by agar well diffusion method; details: for zone of inhibition at 75 µg/mL: read-out: DIZ
Aspergillus niger [16] = assay: Antifungal activity against Aspergillus niger at 25 ug/ml after 48 hrs by agar well diffusion method
Fusarium verticillioides [17] = assay: Antifungal activity against Fusarium moniliforme at 50 ug/ml after 48 hrs by agar well diffusion method
Staphylococcus aureus [18] = assay: Antibacterial activity against methicillin resistant Staphylococcus aureus MRSA090 at 100 ug/ml after 24 hrs by agar well diffusion method
Fusarium verticillioides [19] = assay: Antifungal activity against Fusarium moniliforme at 100 ug/ml after 48 hrs by agar well diffusion method; details: for zone of inhibition at 100 µg/mL: read-out: DIZ
Bacillus subtilis [20] = assay: Antibacterial activity against Bacillus subtilis at 25 ug/ml after 24 hrs by agar well diffusion method
Staphylococcus aureus [21] = assay: Antibacterial activity against methicillin resistant Staphylococcus aureus MRSA090 at 75 ug/ml after 24 hrs by agar well diffusion method
Aspergillus niger [22] = assay: Antifungal activity against Aspergillus niger at 75 ug/ml after 48 hrs by agar well diffusion method
Escherichia coli [23] = assay: Antibacterial activity against Escherichia coli at 50 ug/ml after 24 hrs by agar well diffusion method; details: for zone of inhibition at 50 µg/mL: read-out: DIZ
Escherichia coli [24] = assay: Antibacterial activity against Escherichia coli at 25 ug/ml after 24 hrs by agar well diffusion method; details: for zone of inhibition at 25 µg/mL: read-out: DIZ
Klebsiella pneumoniae [25] = assay: Antibacterial activity against Klebsiella pneumoniae at 75 ug/ml after 24 hrs by agar well diffusion method; details: read-out: DIZ
Escherichia coli [26] = assay: Antibacterial activity against Escherichia coli at 100 ug/ml after 24 hrs by agar well diffusion method; details: for zone of inhibition at 100 µg/mL: read-out: DIZ
Aspergillus niger [27] = assay: Antifungal activity against Aspergillus niger at 100 ug/ml after 48 hrs by agar well diffusion method
Staphylococcus aureus [28] = assay: Antibacterial activity against Staphylococcus aureus at 75 ug/ml after 24 hrs by agar well diffusion method
Fusarium oxysporum [29] = assay: Antifungal activity against Fusarium oxysporum at 100 ug/ml after 48 hrs by agar well diffusion method; details: read-out: DIZ
Fusarium oxysporum [30] = assay: Antifungal activity against Fusarium oxysporum at 25 ug/ml after 48 hrs by agar well diffusion method; details: for zone of inhibition at 25 µg/mL: read-out: DIZ
Bacillus subtilis [31] = assay: Antibacterial activity against Bacillus subtilis at 50 ug/ml after 24 hrs by agar well diffusion method
Escherichia coli [32] = assay: Antibacterial activity against Escherichia coli at 75 ug/ml after 24 hrs by agar well diffusion method; details: for zone of inhibition at 75 µg/mL: read-out: DIZ

| SMILES | diameter of the inhibition zone (DIZ) (Fusarium verticillioides [1]) | diameter of the inhibition zone (DIZ) (Aspergillus niger [2]) | zone of inhibition at 25 µg/mL (Klebsiella pneumoniae [3]) | diameter of the inhibition zone (DIZ) (Staphylococcus aureus [4]) | diameter of the inhibition zone (DIZ) (Bacillus subtilis [5]) | zone of inhibition at 50 µg/mL (Klebsiella pneumoniae [6]) | diameter of the inhibition zone (DIZ) (Staphylococcus aureus [7]) | diameter of the inhibition zone (DIZ) (Bacillus subtilis [8]) | diameter of the inhibition zone (DIZ) (Staphylococcus aureus [9]) | zone of inhibition at 75 µg/mL (Fusarium oxysporum [11]) | diameter of the inhibition zone (DIZ) (Staphylococcus aureus [12]) | diameter of the inhibition zone (DIZ) (Staphylococcus aureus [13]) | zone of inhibition at 100 µg/mL (Klebsiella pneumoniae [14]) | zone of inhibition at 75 µg/mL (Fusarium verticillioides [15]) | diameter of the inhibition zone (DIZ) (Aspergillus niger [16]) | diameter of the inhibition zone (DIZ) (Fusarium verticillioides [17]) | diameter of the inhibition zone (DIZ) (Staphylococcus aureus [18]) | zone of inhibition at 75 µg/mL (Klebsiella pneumoniae [25]) | diameter of the inhibition zone (DIZ) (Staphylococcus aureus [28]) | zone of inhibition at 100 µg/mL (Fusarium oxysporum [29]) | further results |
| --- | --- | --- | --- | --- | --- | --- | --- | --- | --- | --- | --- | --- | --- | --- | --- | --- | --- | --- | --- | --- | --- |
| Cc1cccc2nc(N/N=C/c3ccc(Oc4ccccc4)cc3)sc12 | inactive | inactive | 4 mm | inactive | inactive | 18 mm | inactive | inactive | inactive | 10 mm | inactive | inactive | 15 mm | 8 mm | inactive | inactive | inactive | 11 mm | inactive | 15 mm | diameter of the inhibition zone (DIZ) (Fusarium oxysporum [10]): inactive; zone of inhibition at 100 µg/mL (Fusarium verticillioides [19]): 14 mm; diameter of the inhibition zone (DIZ) (Bacillus subtilis [20]): inactive; diameter of the inhibition zone (DIZ) (Staphylococcus aureus [21]): inactive; diameter of the inhibition zone (DIZ) (Aspergillus niger [22]): inactive; diameter of the inhibition zone (DIZ) (Escherichia coli [23]): inactive; diameter of the inhibition zone (DIZ) (Escherichia coli [24]): inactive; diameter of the inhibition zone (DIZ) (Escherichia coli [26]): inactive; diameter of the inhibition zone (DIZ) (Aspergillus niger [27]): inactive; diameter of the inhibition zone (DIZ) (Fusarium oxysporum [30]): inactive; diameter of the inhibition zone (DIZ) (Bacillus subtilis [31]): inactive; diameter of the inhibition zone (DIZ) (Escherichia coli [32]): inactive |
| Cc1cccc2nc(N/N=C/c3ccccc3)sc12 | inactive | inactive | – | inactive | – | – | inactive | – | inactive | 13 mm | inactive | inactive | 10 mm | – | inactive | inactive | inactive | 7 mm | inactive | 16 mm | diameter of the inhibition zone (DIZ) (Klebsiella pneumoniae [3]): inactive; zone of inhibition at 75 µg/mL (Bacillus subtilis [5]; read-out: DIZ): 11 mm; diameter of the inhibition zone (DIZ) (Klebsiella pneumoniae [6]): inactive; zone of inhibition at 100 µg/mL (Bacillus subtilis [8]; read-out: DIZ): 13 mm; zone of inhibition at 50 µg/mL (Fusarium oxysporum [10]): 8 mm; diameter of the inhibition zone (DIZ) (Fusarium verticillioides [15]): inactive; diameter of the inhibition zone (DIZ) (Fusarium verticillioides [19]): inactive; zone of inhibition at 25 µg/mL (Bacillus subtilis [20]; read-out: DIZ): 5 mm; diameter of the inhibition zone (DIZ) (Staphylococcus aureus [21]): inactive; diameter of the inhibition zone (DIZ) (Aspergillus niger [22]): inactive; zone of inhibition at 50 µg/mL (Escherichia coli [23]): 11 mm; zone of inhibition at 25 µg/mL (Escherichia coli [24]): 9 mm; zone of inhibition at 100 µg/mL (Escherichia coli [26]): 15 mm; diameter of the inhibition zone (DIZ) (Aspergillus niger [27]): inactive; zone of inhibition at 25 µg/mL (Fusarium oxysporum [30]): 4 mm; zone of inhibition at 50 µg/mL (Bacillus subtilis [31]; read-out: DIZ): 7 mm; zone of inhibition at 75 µg/mL (Escherichia coli [32]): 13 mm |
| Cc1cccc2nc(N/N=C/c3ccco3)sc12 | – | – | 11 mm | – | inactive | 16 mm | inactive | inactive | – | 14 mm | inactive | inactive | 24 mm | 18 mm | – | – | – | 21 mm | inactive | 18 mm | zone of inhibition at 25 µg/mL (Fusarium verticillioides [1]; read-out: DIZ): 10 mm; zone of inhibition at 50 µg/mL (Aspergillus niger [2]; read-out: DIZ): 13 mm; zone of inhibition at 50 µg/mL (Staphylococcus aureus [4]; MRSA090, 24 h, read-out: DIZ): 9 mm; zone of inhibition at 25 µg/mL (Staphylococcus aureus [9]; MRSA090, 24 h, read-out: DIZ): 5 mm; zone of inhibition at 50 µg/mL (Fusarium oxysporum [10]): 10 mm; zone of inhibition at 25 µg/mL (Aspergillus niger [16]; read-out: DIZ): 10 mm; zone of inhibition at 50 µg/mL (Fusarium verticillioides [17]; read-out: DIZ): 13 mm; zone of inhibition at 100 µg/mL (Staphylococcus aureus [18]; MRSA090, 24 h, read-out: DIZ): 16 mm; zone of inhibition at 100 µg/mL (Fusarium verticillioides [19]): 21 mm; diameter of the inhibition zone (DIZ) (Bacillus subtilis [20]): inactive; zone of inhibition at 75 µg/mL (Staphylococcus aureus [21]; MRSA090, 24 h, read-out: DIZ): 13 mm; zone of inhibition at 75 µg/mL (Aspergillus niger [22]; read-out: DIZ): 17 mm; zone of inhibition at 50 µg/mL (Escherichia coli [23]): 9 mm; zone of inhibition at 25 µg/mL (Escherichia coli [24]): 4 mm; zone of inhibition at 100 µg/mL (Escherichia coli [26]): 17 mm; zone of inhibition at 100 µg/mL (Aspergillus niger [27]; read-out: DIZ): 22 mm; zone of inhibition at 25 µg/mL (Fusarium oxysporum [30]): 4 mm; diameter of the inhibition zone (DIZ) (Bacillus subtilis [31]): inactive; zone of inhibition at 75 µg/mL (Escherichia coli [32]): 13 mm |

Source: ChEMBL document CHEMBL4020788, “Synthesis, SAR and molecular docking studies of benzo[d]thiazole-hydrazones as potential antibacterial and antifungal agents” (2017)
